Measurements from WO2017093157A1, “Piperidine, pyrrolidine and 2-oxo-1,3-oxazinane derivatives as inhibitors of bacterial efflux-pumps for the treatment of microbial infections” (Basilea Pharmaceutica AG, priority 2015, dated 2017).

Key:
E. coli ATCC25922 = experiment: Antibacterial activity in combination with linezolid, E. coli; assay type: cell-based; conditions: Escherichia coli, linezolid 128 μg/mL, compound 50 μM, OD625 23 h minus 1 h
P. aeruginosa PAOl = experiment: Antibacterial activity in combination with linezolid, P. aeruginosa; assay type: cell-based; conditions: Pseudomonas aeruginosa, linezolid 128 μg/mL, compound 50 μM, OD625 23 h minus 1 h

NCC1COC(=O)N(Cc2cc(C=O)cc(OCc3ccc(Cl)cc3Br)c2)C1 (centres unmarked) [Example 7, 3-[[5-(aminomethyl)-2-oxo-l,3-oxazinan-3-yl]methyl]-5-[(2-bromo-4-chloro-phenyl)methoxy]benzaldehyde]
residual growth (% of uninhibited control) at 50 µM (E. coli ATCC25922): ≤ 50%

C[N+]1(Cc2cc(OCCc3c[nH]cn3)cc(OCc3ccc(Cl)cc3Br)c2)CCC(CN)C1 (stereo not drawn) [Example 23, [l-[[3-[(2-bromo-4-chloro-phenyl)methoxy]-5-[2-(7H-imidazol-4-yl)ethoxy]phenyl]methyl]-l-methyl-pyrrolidin-l-ium-3-yl]methanamine]
residual growth (% of uninhibited control) at 50 µM (P. aeruginosa PAOl): ≤ 50%
